How the values were obtained:
GST-RORγ = target: T1, GST-RORγ (Homo sapiens, UniProt P51449); assay: RORγ scintillation proximity (SPA) radioligand binding assay, displacement of [3H]-T0901317; conditions: for IC50: displacement of 5 nM [3H]-T0901317 from GST-RORγ; for remaining activity at 10 µM: 10 μM compound, read-out: RORγ SPA % bound = % radiolabel bound
T1 construct: 1 μg of GST-RORγ-LBD, 5 nM of [3H]T1317 as radioligand
T1 sequence (P51449 269-508 limits assumed): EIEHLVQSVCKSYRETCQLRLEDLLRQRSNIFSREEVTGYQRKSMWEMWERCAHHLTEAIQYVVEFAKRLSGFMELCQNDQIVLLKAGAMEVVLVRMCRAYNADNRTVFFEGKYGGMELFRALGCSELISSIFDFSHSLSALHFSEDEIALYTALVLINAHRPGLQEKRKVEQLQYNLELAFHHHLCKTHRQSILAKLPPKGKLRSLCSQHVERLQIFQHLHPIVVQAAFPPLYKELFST

RORα = target: T2, RORα (Homo sapiens, UniProt P35398); assay: Gal4-RORα LBD / UAS luciferase cotransfection assay; assay type: cell-based; conditions: 10 μM
T2 construct: expressed in transfected cells; host or cells: HEK293T
T2 sequence (P35398 272-510 limits assumed): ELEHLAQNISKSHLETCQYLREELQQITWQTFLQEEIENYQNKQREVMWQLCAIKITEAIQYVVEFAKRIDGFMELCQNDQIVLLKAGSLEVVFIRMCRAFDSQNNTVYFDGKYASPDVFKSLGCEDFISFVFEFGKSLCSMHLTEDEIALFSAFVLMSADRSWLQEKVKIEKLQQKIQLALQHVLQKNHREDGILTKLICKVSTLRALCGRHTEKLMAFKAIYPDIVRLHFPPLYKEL

RORγ = target: T3, RORγ (Homo sapiens, UniProt P51449); assay: Gal4-RORγ LBD / UAS luciferase cotransfection assay; assay type: cell-based; conditions: for RORγ repression, fold change over DMSO: 10 μM
T3 construct: expressed in transfected cells; host or cells: HEK293T
T3 sequence (P51449 269-508 limits assumed): T1 sequence (P51449 269-508 limits assumed)
Method: (§1) The cells were treated with either DMSO or various compounds as indicated four hours after replating. Following additional 20 hour incubation, luciferase levels were assayed by one-step addition of 20 μL BriteLite (Perkin Elmer) and read using an Envision multilabel plate reader (Perkin Elmer).
Cotransfection assays were performed as previously described in HEK293 cells (Gal4 cotransfection assay or IL-17 luciferase reporter)[8]. HEK293 and the mouse lymphoma EL4 (ATCC) cells were maintained in DMEM supplemented with 10% FBS plus antibiotics (penicillin and streptomycin; Invitrogen).

VP16 = assay: Gal4 DBD-VP16 / UAS luciferase control assay; assay type: cell-based; conditions: 10 μM
Method: as §1

LXR = target: T4, LXR (Homo sapiens, UniProt Q13133); assay: Gal4-LXRα / UAS luciferase cotransfection assay; assay type: cell-based; conditions: 10 μM
T4 sequence (Q13133 209-447 limits assumed): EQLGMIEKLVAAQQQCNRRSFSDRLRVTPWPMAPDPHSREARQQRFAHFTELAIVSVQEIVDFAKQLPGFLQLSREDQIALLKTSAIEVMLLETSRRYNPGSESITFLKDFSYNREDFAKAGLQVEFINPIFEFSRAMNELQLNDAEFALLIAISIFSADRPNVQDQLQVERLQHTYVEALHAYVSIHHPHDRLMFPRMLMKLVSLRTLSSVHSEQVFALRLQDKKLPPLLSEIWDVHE

| SMILES | IC50 (GST-RORγ) | RORα repression, fold change over DMSO (RORα) | IC50 (RORγ; Gal4 cotransfection) | VP16 repression, fold change over DMSO (VP16) | LXR activation, fold change over DMSO (LXR) | remaining activity at 10 µM (GST-RORγ) | RORγ repression, fold change over DMSO (RORγ) |
| --- | --- | --- | --- | --- | --- | --- | --- |
| OC(c1ccc(-c2ccc(CN3CCN(Cc4ccncc4)CC3)cc2)cc1)(C(F)(F)F)C(F)(F)F [Compound 1, 1,1,1,3,3,3-Hexafluoro-2-(4′-((4-(pyridin-4-ylmethyl)piperazin-1-yl)methyl)-[1,1′-biphenyl]-4-yl)propan-2-ol] | 150 nM | 1 fold change over DMSO | 400 nM | 1 fold change over DMSO | 1 fold change over DMSO |  |  |
| OC(c1ccc(-c2ccc(CN3CCN(C4CC4)CC3)cc2)cc1)(C(F)(F)F)C(F)(F)F [Compound 17, 2-(4′-((4-Cyclopropylpiperazin-1-yl)methyl)-[1,1′-biphenyl]-4-yl)-1,1,1,3,3,3-hexafluoropropan-2-ol] |  | 0.55 fold change over DMSO |  | 0.4 fold change over DMSO | 0.75 fold change over DMSO | 20% | 0.25 fold change over DMSO |
| O=C(Cc1ccccc1)N1CCN(Cc2ccc(-c3ccc(C(O)(C(F)(F)F)C(F)(F)F)cc3)cc2)CC1 [Compound 27, 1-(4-((4′-(1,1,1,3,3,3-Hexafluoro-2-hydroxypropan-2-yl)-[1,1′-biphenyl]-4-yl)methyl)piperazin-1-yl)-2-phenylethanone] |  | 0.5 fold change over DMSO |  | 0.3 fold change over DMSO | 0.8 fold change over DMSO |  | 0.25 fold change over DMSO |
| CS(=O)(=O)N1CCN(Cc2ccc(-c3ccc(C(O)(C(F)(F)F)C(F)(F)F)cc3)cc2)CC1 [Compound 28, 1,1,1,3,3,3-Hexafluoro-2-(4′-((4-(methylsulfonyl)piperazin-1-yl)methyl)-[1,1′-biphenyl]-4-yl)propan-2-ol] |  | 1.1 fold change over DMSO |  | 0.75 fold change over DMSO | 1.5 fold change over DMSO |  | 0.5 fold change over DMSO |
| O=S(=O)(c1ccccc1)N1CCN(Cc2ccc(-c3ccc(C(O)(C(F)(F)F)C(F)(F)F)cc3)cc2)CC1 [Compound 29, 1,1,1,3,3,3-Hexafluoro-2-(4′-((4-(phenylsulfonyl)piperazin-1-yl)methyl)-[1,1′-biphenyl]-4-yl)propan-2-ol] |  | 1 fold change over DMSO |  | 0.8 fold change over DMSO | 1.8 fold change over DMSO |  | 0.8 fold change over DMSO |
| O=S(=O)(Cc1ccccc1)N1CCN(Cc2ccc(-c3ccc(C(O)(C(F)(F)F)C(F)(F)F)cc3)cc2)CC1 [Compound 30, 2-(4′-((4-(Benzylsulfonyl)piperazin-1-yl)methyl)-[1,1′-biphenyl]-4-yl)-1,1,1,3,3,3-hexafluoropropan-2-ol] |  | 1 fold change over DMSO |  | 0.75 fold change over DMSO | 2 fold change over DMSO |  | 0.75 fold change over DMSO |
| OC(c1ccc(-c2ccc(CN3CCN(Cc4ccnc(Br)c4)CC3)cc2)cc1)(C(F)(F)F)C(F)(F)F [Compound 40, 2-(4′-((4-((2-Bromopyridin-4-yl)methyl)piperazin-1-yl)methyl)-[1,1′-biphenyl]-4-yl)-1,1,1,3,3,3-hexafluoropropan-2-ol] |  | 0.1 fold change over DMSO |  | 0.05 fold change over DMSO | 1 fold change over DMSO |  | 0.05 fold change over DMSO |
| OC(c1ccc(-c2ccc(CN3CCN(CCc4ccncc4)CC3)cc2)cc1)(C(F)(F)F)C(F)(F)F [Compound 41, 1,1,1,3,3,3-Hexafluoro-2-(4′-((4-(2-(pyridin-4-yl)ethyl)piperazin-1-yl)methyl)-[1,1′-biphenyl]-4-yl)propan-2-ol] |  | 0.5 fold change over DMSO |  | 0.3 fold change over DMSO | 1 fold change over DMSO |  | 0.3 fold change over DMSO |
| OC(c1ccc(-c2ccc(CN3CCN(Cc4nc5ccccc5s4)CC3)cc2)cc1)(C(F)(F)F)C(F)(F)F [Compound 42, 2-(4′-((4-(Benzo[d]thiazol-2-ylmethyl)piperazin-1-yl)methyl)-[1,1′-biphenyl]-4-yl)-1,1,1,3,3,3-hexafluoropropan-2-ol] |  | 0.4 fold change over DMSO |  | 0.1 fold change over DMSO | 1 fold change over DMSO |  | 0.2 fold change over DMSO |
| Cc1cc(CN2CCN(Cc3ccc(-c4ccc(C(O)(C(F)(F)F)C(F)(F)F)cc4)cc3)CC2)ccn1 [Compound 43, 1,1,1,3,3,3-Hexafluoro-2-(4′-((4-((2-methylpyridin-4-yl)methyl)piperazin-1-yl)methyl)-[1,1′-biphenyl]-4-yl)propan-2-ol] |  | 0.6 fold change over DMSO |  | 0.6 fold change over DMSO | 1 fold change over DMSO |  | 0.1 fold change over DMSO |
| OC(c1ccc(-c2ccc(CN3CCN(c4ccncc4)CC3)cc2)cc1)(C(F)(F)F)C(F)(F)F [Compound 44, 1,1,1,3,3,3-Hexafluoro-2-(4′-((4-(pyridin-4-yl)piperazin-1-yl)methyl)-[1,1′-biphenyl]-4-yl)propan-2-ol] |  | 0.5 fold change over DMSO |  | 0.3 fold change over DMSO | 1 fold change over DMSO |  | 0.4 fold change over DMSO |
| OC(c1ccc(-c2ccc(CN3CCN(Cc4ccncc4Br)CC3)cc2)cc1)(C(F)(F)F)C(F)(F)F [Compound 59, 2-(4′-((4-((3-Bromopyridin-4-yl)methyl)piperazin-1-yl)methyl)-[1,1′-biphenyl]-4-yl)-1,1,1,3,3,3-hexafluoropropan-2-ol] | 1100 nM | 0.4 fold change over DMSO |  | 0.4 fold change over DMSO | 4 fold change over DMSO |  | 0.05 fold change over DMSO |
| OC(c1ccc(-c2ccc(CN3CCC(Cc4ccc5c(c4)OCO5)CC3)cc2)cc1)(C(F)(F)F)C(F)(F)F [Compound 88, 2-(4′-((4-(Benzo[d][1.3]dioxol-5-ylmethyl)piperidin-1-yl)methyl)-[1,1′-biphenyl]-4-yl)-1,1,1,3,3,3-hexafluoropropan-2-ol] |  | 0.6 fold change over DMSO |  | 0.3 fold change over DMSO | 1.3 fold change over DMSO | 35% | 0.2 fold change over DMSO |
| OC(c1ccc(-c2ccc(CN3CCN(Cc4ccncc4)CC3)c(Cl)c2)cc1)(C(F)(F)F)C(F)(F)F [Compound 93, 2-(3′-Chloro-4′-((4-(pyridin-4-ylmethyl)piperazin-1-yl)methyl)-[1,1′-biphenyl]-4-yl)-1,1,1,3,3,3-hexafluoropropan-2-ol] |  | 0.4 fold change over DMSO |  | 0.7 fold change over DMSO | 1.5 fold change over DMSO |  | 0.05 fold change over DMSO |
| OC(c1ccc(-c2ccc(CN3CCN(Cc4ccncc4)CC3)cc2F)cc1)(C(F)(F)F)C(F)(F)F [Compound 95, 1,1,1,3,3,3-Hexafluoro-2-(2′-fluoro-4′-((4-(pyridin-4-ylmethyl)piperazin-1-yl)methyl)-[1,1′-biphenyl]-4-yl)propan-2-ol] |  | 0.5 fold change over DMSO |  | 0.7 fold change over DMSO | 5 fold change over DMSO |  | 0.05 fold change over DMSO |
| OC(c1ccc(-c2ccc(CN3CCN(Cc4c(F)cncc4F)CC3)cc2)cc1)(C(F)(F)F)C(F)(F)F [Compound 101, 2-(4′-((4-((3,5-Difluoropyridin-4-yl)methyl)piperazin-1-yl)methyl)-[1,1′-biphenyl]-4-yl)-1,1,1,3,3,3-hexafluoropropan-2-ol] |  | 0.8 fold change over DMSO |  | 0.75 fold change over DMSO | 4 fold change over DMSO |  | 0.15 fold change over DMSO |

— patent publication US9586928B2 (The Scripps Research Institute, priority 2011, dated 2017)
